According to US20120329653A1, “SYNERGISTIC HERBICIDAL COMPOSITION CONTAINING PENOXSULAM AND PENDIMETHALIN” (DOW AGROSCIENCES LLC, priority 2011, published 2012):

Assays:
Format in all cases: in vivo
[1] = tested on: Alopecurus myosuroides (blackgrass); experiment: Preemergence field trial in perennial tree crops, % weed control; conditions: 206 days after application
Description: (§1) Field trials were conducted in rice and tree crops using standard herbicide small plot research methodology. Plot size was typical for small plot research, varying from 2 to 4 meters (m) wide by 6.7 to 10 meters long. There were 3 to 4 replicates per treatment. Soil types ranged from medium to fine soil texture. Rice or cereal crops were sown by mechanical direct dry seeding as per normal local cultural practices. The rice or cereal crop was grown using normal cultural practices for fertilization, watering, flooding and maintenance to ensure good growth of the crop and the weeds.
(§2) Treatments were applied by backpack sprayer using either compressed air or CO2, at spray pressures from 124 to 276 kilopascals (kPa). Spray tips were typically Flat Fan Teejet nozzles, such as TJ8002 to TJ110015 or XR11001. Spray volumes varied from 93.5 to 250 liters per hectare (L/ha). Penoxsulam was applied as the commercial products Grasp SC (240 gr ai/L) or Clipper 20 OD (20 grams ai/L); pendimethalin was applied as the commercial product Prowl EC.
(§3) For each treatment, the appropriate formulated product amount to treat the plot area, to achieve the desired application rate, based on unit area of application (hectare), was calculated, measured, and mixed in water prior to applying with the backpack sprayer. Treatments were rated as compared to the untreated control plots.
(§4) The treated plots and control plots were rated blind at various intervals after application. Ratings were based of Percent (%) Visual weed control, where 0 corresponds to no injury and 100 corresponds to complete kill.
(§5) Colby's equation was used to determine the herbicidal effects expected from the mixtures (Colby, S. R. Calculation of the synergistic and antagonistic response of herbicide combinations. Weeds 1967, 15, 20-22).
(§6) The following equation was used to calculate the expected activity of mixtures containing two active ingredients, A and B:
(§7) A=observed efficacy of active ingredient A at the same concentration as used in the mixture;
(§8) B=observed efficacy of active ingredient B at the same concentration as used in the mixture.

[2] = tested on: Ipomoea spp. (morningglory); experiment: Preemergence field trial in seeded rice, % visual weed control; conditions: Texas, USA, 22 to 54 days after application
Description: as §1, §2, §3, §4, §5, §6, §7, §8

[3] = tested on: Alternanthera philoxeroides (alligatorweed); experiment: as above; conditions: USA, 22 to 54 days after application
Description: as §1, §2, §3, §4, §5, §6, §7, §8

[4] = tested on: SEBEX; experiment: as above; conditions: 22 to 54 days after application
Description: as §1, §2, §3, §4, §5, §6, §7, §8

[5] = tested on: Echinochloa colonum (junglerice); experiment: as above; conditions: 60 days after application
Description: as §1, §2, §3, §4, §5, §6, §7, §8

[6] = tested on: Ischaemum rugosum (saramollagrass); experiment: as above; conditions: 60 days after application
Description: as §1, §2, §3, §4, §5, §6, §7, §8

Row | SMILES | % Control ALOMY Obs ([1]; penoxsulam 10 gai/ha) [%] | % Control ALOMY Obs ([1]; penoxsulam 20 gai/ha) [%] | % Control ALOMY Obs ([1]; penoxsulam 30 gai/ha) [%] | % Control ALOMY Obs ([1]; penoxsulam 40 gai/ha) [%] | % Visual Control IPOSS Obs ([2]; penoxsulam 20 gai/ha) [%] | % Visual Control ALRPH Obs ([3]; penoxsulam 20 gai/ha, Arkansas) [%] | % Visual Control ALRPH Obs ([3]; penoxsulam 20 gai/ha, Texas) [%] | % Visual Control SEBEX Obs ([4]; penoxsulam 40 gai/ha) [%] | % Visual Control ECHCO Obs ([5]; penoxsulam 20 gai/ha) [%] | % Visual Control ISCRU Obs ([6]; penoxsulam 30 gai/ha) [%] | % Control ALOMY Obs ([1]; pendimethalin 500 gai/ha) [%] | % Control ALOMY Obs ([1]; pendimethalin 1000 gai/ha) [%] | % Visual Control IPOSS Obs ([2]; pendimethalin 1100 gai/ha) [%] | % Visual Control ALRPH Obs ([3]; pendimethalin 1100 gai/ha, Arkansas) [%] | % Visual Control ALRPH Obs ([3]; pendimethalin 1100 gai/ha, Texas) [%] | % Visual Control SEBEX Obs ([4]; pendimethalin 1100 gai/ha) [%] | % Visual Control ECHCO Obs ([5]; pendimethalin 750 gai/ha) [%] | % Visual Control ISCRU Obs ([6]; pendimethalin 750 gai/ha) [%]
1 | COc1cnc(OC)n2nc(NS(=O)(=O)c3c(OCC(F)F)cccc3C(F)(F)F)nc12 [Penoxsulam] | 0 | 20 | 43 | 50 | 21 | 43 | 74 | 40 | 25 | 35 | – | – | – | – | – | – | – | –
2 | CCC(CC)Nc1c([N+](=O)[O-])cc(C)c(C)c1[N+](=O)[O-] [Pendimethalin, N-(1-ethylpropyl)-3,4-dimethyl-2,6-dinitrobenzenamine] | – | – | – | – | – | – | – | – | – | – | 0 | 7 | 35 | 0 | 0 | 14 | 55 | 57
